# Data published in ChEMBL document CHEMBL1201862, “PubChem BioAssay data set” (2004).
# Activity calls are given as the source filed them.
# Experiments:
# Format in all cases: functional
# [1] = target: T1, Hexokinase HKDC1 (Homo sapiens, UniProt Q2TB90); experiment: HKDC1 hexokinase activators, dose response, biochemical, W721R variant (AID 504730)
# T1 sequence (Q2TB90 whole entry): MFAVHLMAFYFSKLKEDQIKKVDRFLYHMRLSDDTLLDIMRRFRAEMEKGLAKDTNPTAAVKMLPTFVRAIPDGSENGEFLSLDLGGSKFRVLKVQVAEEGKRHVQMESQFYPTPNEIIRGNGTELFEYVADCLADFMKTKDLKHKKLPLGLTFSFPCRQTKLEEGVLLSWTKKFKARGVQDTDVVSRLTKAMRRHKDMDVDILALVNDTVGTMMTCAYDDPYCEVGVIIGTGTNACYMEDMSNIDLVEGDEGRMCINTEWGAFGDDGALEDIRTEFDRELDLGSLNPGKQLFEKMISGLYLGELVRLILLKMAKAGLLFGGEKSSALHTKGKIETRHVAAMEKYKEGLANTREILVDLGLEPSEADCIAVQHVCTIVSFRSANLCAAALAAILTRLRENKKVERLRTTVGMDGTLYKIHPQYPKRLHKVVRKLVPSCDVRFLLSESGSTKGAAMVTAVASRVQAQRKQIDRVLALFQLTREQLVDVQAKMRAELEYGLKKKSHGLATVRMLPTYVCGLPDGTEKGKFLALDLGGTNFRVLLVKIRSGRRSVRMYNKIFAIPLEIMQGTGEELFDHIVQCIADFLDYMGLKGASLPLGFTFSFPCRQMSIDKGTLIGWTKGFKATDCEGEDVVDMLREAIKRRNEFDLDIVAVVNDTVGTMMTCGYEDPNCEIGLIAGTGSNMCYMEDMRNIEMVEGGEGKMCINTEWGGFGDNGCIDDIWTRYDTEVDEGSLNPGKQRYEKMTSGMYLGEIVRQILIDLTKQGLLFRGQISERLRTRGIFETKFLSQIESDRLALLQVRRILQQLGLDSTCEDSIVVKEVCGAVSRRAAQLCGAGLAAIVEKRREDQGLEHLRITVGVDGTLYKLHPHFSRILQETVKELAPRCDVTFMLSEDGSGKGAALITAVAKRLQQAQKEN
# [2] = target: Lysosomal acid glucosylceramidase (Homo sapiens, UniProt P04062); experiment: Dose response cell-based high throughput screening assay to identify enhancers of beta-glucosidase activity. [Related pubchem assays: 784 ]
# Chain of Lysosomal acid glucosylceramidase (P04062 whole entry): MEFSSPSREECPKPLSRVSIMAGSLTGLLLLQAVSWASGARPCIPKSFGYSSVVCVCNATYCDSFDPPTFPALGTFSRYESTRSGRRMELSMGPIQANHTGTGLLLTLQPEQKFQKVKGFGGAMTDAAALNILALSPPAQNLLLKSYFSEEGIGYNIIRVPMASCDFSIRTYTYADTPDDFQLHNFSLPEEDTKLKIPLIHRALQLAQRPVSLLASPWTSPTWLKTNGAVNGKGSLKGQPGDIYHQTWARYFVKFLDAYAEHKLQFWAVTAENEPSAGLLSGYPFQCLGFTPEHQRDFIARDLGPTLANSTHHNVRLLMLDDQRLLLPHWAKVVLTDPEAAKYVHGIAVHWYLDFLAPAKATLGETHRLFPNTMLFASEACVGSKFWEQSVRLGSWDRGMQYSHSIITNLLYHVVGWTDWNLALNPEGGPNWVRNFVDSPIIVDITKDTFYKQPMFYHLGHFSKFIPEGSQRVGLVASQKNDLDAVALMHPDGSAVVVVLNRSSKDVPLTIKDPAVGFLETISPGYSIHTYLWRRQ
# [3] = target: T2, Sphingosine 1-phosphate receptor 4 (Homo sapiens, UniProt O95977); experiment: Late-stage fluorescence dose response cell-based assay to identify agonists of the Sphingosine 1-Phosphate Receptor 4 (S1P4): purchased compounds EC50. [Related pubchem assays (depositor defined):AID1509, AID1523, AID1563, AID1686, AID1701, AID1801]
# T2 sequence (O95977 whole entry): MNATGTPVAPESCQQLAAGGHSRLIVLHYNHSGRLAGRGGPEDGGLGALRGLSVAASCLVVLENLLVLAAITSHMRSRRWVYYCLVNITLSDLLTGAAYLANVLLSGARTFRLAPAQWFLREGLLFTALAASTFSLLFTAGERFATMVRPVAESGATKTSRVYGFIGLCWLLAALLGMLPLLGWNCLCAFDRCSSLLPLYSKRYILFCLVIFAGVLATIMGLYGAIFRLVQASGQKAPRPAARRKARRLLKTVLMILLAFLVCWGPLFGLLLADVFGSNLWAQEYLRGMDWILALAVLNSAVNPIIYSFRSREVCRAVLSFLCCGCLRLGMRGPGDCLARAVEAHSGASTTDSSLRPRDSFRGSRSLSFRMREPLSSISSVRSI
# [4] = target: Hexokinase (Trypanosoma brucei, UniProt Q38C41); experiment: Confirmation assay for inhibitors of Trypanosoma brucei hexokinase 1-Analogue-first series. [Related pubchem assays (depositor defined):AID1430, AID1632, AID2516, AID2560, AID2579, AID2600, AID449725, AID492951]
# Chain of Hexokinase (Q38C41 whole entry, the tested form may be a part): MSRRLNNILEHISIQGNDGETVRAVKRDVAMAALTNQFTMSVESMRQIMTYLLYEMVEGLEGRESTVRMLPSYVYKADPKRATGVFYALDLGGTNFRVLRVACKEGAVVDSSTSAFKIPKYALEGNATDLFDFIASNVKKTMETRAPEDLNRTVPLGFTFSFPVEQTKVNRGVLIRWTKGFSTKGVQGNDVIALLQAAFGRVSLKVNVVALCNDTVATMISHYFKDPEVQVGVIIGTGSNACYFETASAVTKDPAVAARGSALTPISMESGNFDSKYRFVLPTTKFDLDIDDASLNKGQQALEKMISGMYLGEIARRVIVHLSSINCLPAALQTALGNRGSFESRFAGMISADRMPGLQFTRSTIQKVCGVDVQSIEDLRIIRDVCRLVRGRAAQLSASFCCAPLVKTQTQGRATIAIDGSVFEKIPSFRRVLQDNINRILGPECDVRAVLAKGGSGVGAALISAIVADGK
# [5] = target: T3, Type-1 angiotensin II receptor (Homo sapiens, UniProt P30556); experiment: AT1 receptor agonists, dose response, selectivity assay for APJ receptor agonist project, cell-based, uHTS hits (AID 488865);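 note: beta-arrestin recruitment to AT1 measured by enzyme fragment complementation luminescence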
# T3 sequence (P30556 whole entry): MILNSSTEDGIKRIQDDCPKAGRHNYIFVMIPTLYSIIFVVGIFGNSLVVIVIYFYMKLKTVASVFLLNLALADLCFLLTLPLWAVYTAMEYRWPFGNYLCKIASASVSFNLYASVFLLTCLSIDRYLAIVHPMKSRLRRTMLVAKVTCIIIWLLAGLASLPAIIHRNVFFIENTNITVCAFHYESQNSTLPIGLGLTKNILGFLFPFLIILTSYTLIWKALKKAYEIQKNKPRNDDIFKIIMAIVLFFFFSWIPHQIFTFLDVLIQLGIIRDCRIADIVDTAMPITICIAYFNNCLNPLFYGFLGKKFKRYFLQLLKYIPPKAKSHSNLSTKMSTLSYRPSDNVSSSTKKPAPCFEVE
smiles,measurement,setting,value
Cc1cc(Oc2ccc(C(C)(C)C)cc2)nc(N2CCOCC2)n1,EC50,[1],> 80 µM (inactive)
CCCc1cc(O)nc(SCC(=O)CSc2nc(O)cc(CCC)n2)n1,EC50,[2],> 50 µM (not active)
Cc1ccc(OC(C)C(=O)Nc2cc(Cl)ccc2Cl)c([N+](=O)[O-])n1 (stereo not drawn),EC50,[3],> 50 µM (inactive)
Cc1cc(C)cc(OCCOc2ccc(C)nc2[N+](=O)[O-])c1,EC50,[3],> 50 µM (inactive)
O=c1c2cc(F)c(F)cc2sn1-c1ccccc1,IC50,[4],2.23 µM (active)
O=C(Cn1ncc2c3ccccc3nc-2c1O)Nc1ccc(CN2CCCCC2)cc1,EC50,[5],> 100 µM (inactive)
CCc1ccc(C(=O)Nc2cc(Cl)ccc2C(=O)OC)cc1,IC50,[4],> 25 µM (inactive)
C/N=C1/SC(CC(=O)Nc2cccc(C(F)(F)F)c2)C(=O)N1C (stereo not drawn),EC50,[2],> 50 µM (not active)
